According to PMC4710668, “Bioactivation of food genotoxicants 5-hydroxymethylfurfural and furfuryl alcohol by sulfotransferases from human, mouse and rat: a comparative study” (Archives of Toxicology, 2014):

Tests used:
Experiment in all cases: HMF sulfoconjugation assay
Format in all cases: biochemical
hSULT1C1 = target: T1, hSULT1C1 (Homo sapiens, UniProt O00338)
T1 construct: made in house; host or cells: Salmonella typhimurium TA1538 (cytosolic fraction, not purified)
Experimental: (§1) Cytosolic fractions containing individual SULT forms were prepared from transgenic S. typhimurium TA1538. Table S1 in the Supplementary Material provides a summary of the thirty SULTs used in the current study together with references describing the cloning of the respective S. typhimurium TA1538 strains. The expressed SULT forms are denoted with the prefixes h, m and r for human, mouse and rat enzymes, respectively. Bacteria were grown in Luria Broth medium containing ampicillin (100 µg/ml) by stirring for 8 h at 200 revolutions/min at 37 °C. The bacterial suspensions were centrifuged at 5,000 g for 10 min. The sediments were washed twice with 25 ml of 10 mM potassium phosphate buffer (pH 7.4)/50 mM potassium chloride (KCP buffer) and centrifuged again. The pellets were taken up in 800 µl KCP buffer and sonicated thrice for 15 s with 30 s pauses in between. The soluble fraction was attained by centrifuging for 1 h at 100,000 g. The supernatants (in the following termed cytosolic preparations) were frozen at −80 °C. The protein concentrations were determined according to a bicinchoninic acid (BCA) assay protocol. The SULT concentrations in the cytosolic preparations were estimated after electrophoretic separation and immunodetection using inclusion bodies of different SULT forms as standards (Teubner et al. [2007]). The preparation of SULT inclusion bodies and the immunodetection of SULTs is described in the Supplementary Material, which also contains a representative immunoblot of different amounts of rSult1a1standard and a cytosolic preparation of S. typhimurium expressing rSult1a1 (Fig. S1).
(§2) The reactions were conducted in mixtures of 100 µl containing 25–200 µg protein, 50 mM potassium phosphate buffer (pH 7.4), 5 mM MgCl2, 50 µM PAPS and different concentrations of HMF at 37 °C. Preliminary experiments ensured that measurements were recorded under ‘linear’ conditions, i.e., doubling of protein concentration or incubation time was doubling the amount of sulfate ester formed. The reactions were stopped after 30 min by adding 300 µl ice-cold 2-propanol, mixed and centrifuged at 15,000 g for 10 min.
(§3) SMF concentrations of the clear supernatants were analyzed by UPLC-MS/MS. The protocol was adapted from the quantification of SMF in plasma samples of HMF-treated mice (Monien et al. [2009]). In short, the supernatants were analyzed using a UPLC system (Waters) connected to a Quattro Premier XE tandem quadrupole mass spectrometer (Waters) using the negative electrospray ionization mode. Samples of 4 µl were injected into a HSS T3 column (1.8 µm, 2.1 × 100 mm; Waters) and eluted with an isocratic flow of 0.35 ml/min 10 mM ammonium acetate/methanol (95:5). The fragmentation reactions of SMF yielding two principal ions, the sulfate ion radical (m/z = 204.9 → 96.0) and the protonated sulfonate ion (m/z = 204.9 → 81.0) were monitored. The tune parameters were as follows: temperature of the electrospray source 120 °C; desolvation temperature 475 °C; desolvation gas nitrogen (800 l/h); cone gas nitrogen (100 l/h); collision gas argon (indicated cell pressure ~5 × 10^−3 mbar). For the fragmentation of SMF, collision energies were 20 and 23 eV for the transitions m/z = 204.9 → 81.0 and m/z = 204.9 → 96.0, respectively. The dwell time was set to 100 ms, and capillary voltage was set to 0.35 kV. The cone and RF1 lens voltages were 32 and 0.2 V, respectively. SMF was quantified using an external calibration line that was linear in the concentration range of 1.0 nM (4 fmol/injection) to 2,500 (10 pmol/injection) SMF (r ^2 ≥ 0.99). Data acquisition and handling were performed with MassLynx 4.1 software (Waters). The limit of detection (LOD) for this technique of 2.5 nM SMF has been reported (Monien et al. [2009]). In the current study, this corresponds to 10 fmol SMF per injection or a reaction rate of 0.5 pmol SMF/mg/min.

hSULT1E1 = target: T2, hSULT1E1 (Homo sapiens, UniProt P49888)
T2 construct: made in house; host or cells: Salmonella typhimurium TA1538 (cytosolic fraction, not purified)
T2 sequence (P49888 1-294): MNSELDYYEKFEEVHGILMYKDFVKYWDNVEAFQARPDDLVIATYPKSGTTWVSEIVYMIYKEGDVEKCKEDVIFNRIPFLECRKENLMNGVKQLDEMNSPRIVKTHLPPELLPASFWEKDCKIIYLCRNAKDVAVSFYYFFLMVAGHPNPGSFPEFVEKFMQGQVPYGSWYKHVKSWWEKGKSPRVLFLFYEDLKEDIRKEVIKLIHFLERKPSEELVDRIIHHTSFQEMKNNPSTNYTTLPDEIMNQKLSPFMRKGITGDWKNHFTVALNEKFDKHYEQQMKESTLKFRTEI
Experimental: as §1, §2, §3

rSult1b1 = target: T3, rSult1b1 (Rattus norvegicus, UniProt P52847)
T3 construct: made in house; host or cells: Salmonella typhimurium TA1538 (cytosolic fraction, enzyme not purified)
T3 sequence (P52847 whole entry): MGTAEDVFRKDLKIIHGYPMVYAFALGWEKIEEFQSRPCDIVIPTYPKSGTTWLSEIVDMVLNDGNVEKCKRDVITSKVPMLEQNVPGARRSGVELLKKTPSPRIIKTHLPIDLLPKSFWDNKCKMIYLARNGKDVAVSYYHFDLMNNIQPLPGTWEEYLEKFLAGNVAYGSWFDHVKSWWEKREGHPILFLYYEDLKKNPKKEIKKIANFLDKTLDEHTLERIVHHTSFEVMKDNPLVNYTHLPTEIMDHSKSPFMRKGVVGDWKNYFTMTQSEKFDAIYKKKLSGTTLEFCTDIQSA
Experimental: as §1, §2, §3

rSult2b1 = target: T4, rSult2b1 (Rattus norvegicus, UniProt Q29YR5)
T4 construct: made in house; host or cells: Salmonella typhimurium TA1538 (cytosolic fraction, enzyme not purified)
T4 sequence (Q29YR5 1-340): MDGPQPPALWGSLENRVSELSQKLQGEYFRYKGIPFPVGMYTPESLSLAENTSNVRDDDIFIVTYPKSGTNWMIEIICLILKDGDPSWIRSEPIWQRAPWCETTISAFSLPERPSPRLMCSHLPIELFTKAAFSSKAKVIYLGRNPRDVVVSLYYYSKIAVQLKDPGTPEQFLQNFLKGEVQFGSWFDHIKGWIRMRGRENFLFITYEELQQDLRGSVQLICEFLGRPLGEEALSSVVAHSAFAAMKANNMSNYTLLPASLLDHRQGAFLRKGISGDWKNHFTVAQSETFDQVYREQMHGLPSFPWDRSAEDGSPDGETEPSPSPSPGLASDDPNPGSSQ
Experimental: as §1, §2, §3

T1 sequence (O00338 whole entry): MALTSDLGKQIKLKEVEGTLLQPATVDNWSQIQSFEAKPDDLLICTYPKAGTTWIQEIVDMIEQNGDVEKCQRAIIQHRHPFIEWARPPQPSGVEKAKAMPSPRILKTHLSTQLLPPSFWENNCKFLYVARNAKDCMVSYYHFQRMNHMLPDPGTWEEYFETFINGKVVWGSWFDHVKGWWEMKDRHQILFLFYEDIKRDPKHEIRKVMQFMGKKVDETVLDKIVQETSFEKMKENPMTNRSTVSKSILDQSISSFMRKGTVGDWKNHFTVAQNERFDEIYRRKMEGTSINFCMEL

`O=Cc1ccc(CO)o1` [HMF, 5-Hydroxymethylfurfural] showed a Rate of sulfoconjugation (hSULT1C1; 0.1 mM HMF) of under 0.5 pmol/mg/min, a Rate of sulfoconjugation (hSULT1C1; 1 mM HMF) of under 0.5 pmol/mg/min and a Rate of sulfoconjugation (hSULT1C1; 10 mM HMF) of 4.7 ± 0.3 pmol/mg/min. It also gave a Rate of sulfoconjugation (hSULT1C1; 100 mM HMF) of 11.0 ± 1.4 pmol/mg/min, a Rate of sulfoconjugation (hSULT1E1; 0.1 mM HMF) of under 0.5 pmol/mg/min and a Rate of sulfoconjugation (hSULT1E1; 1 mM HMF) of 1.0 ± 0.2 pmol/mg/min. The Rate of sulfoconjugation (hSULT1E1; 10 mM HMF) was 5.7 ± 0.8 pmol/mg/min, the Rate of sulfoconjugation (hSULT1E1; 100 mM HMF) was 7.7 ± 1.2 pmol/mg/min and the Rate of sulfoconjugation (rSult1b1; 0.1 mM HMF) was under 0.5 pmol/mg/min. It also gave a Rate of sulfoconjugation (rSult1b1; 1 mM HMF) of 3.4 ± 0.2 pmol/mg/min, a Rate of sulfoconjugation (rSult1b1; 10 mM HMF) of 25.2 ± 0.4 pmol/mg/min and a Rate of sulfoconjugation (rSult1b1; 100 mM HMF) of 30.8 ± 1.2 pmol/mg/min. For the same compound, the “K M” value (rSult1b1; HMF sulfoconjugation, Michaelis-Menten fit) was 15.7 ± 0.9 mM, the Rate of sulfoconjugation (rSult2b1; 0.1 mM HMF) was under 0.5 pmol/mg/min and the Rate of sulfoconjugation (rSult2b1; 1 mM HMF) was under 0.5 pmol/mg/min. The Rate of sulfoconjugation (rSult2b1; 10 mM HMF) was under 0.5 pmol/mg/min and the Rate of sulfoconjugation (rSult2b1; 100 mM HMF) was under 0.5 pmol/mg/min.
